Results reported in patent US9512178B2, “Neurogenic brain-derived neurotrophic factor peptides” (Research Foundation for Mental Hygiene, Inc., priority 2012, dated 2016).

Key:
[1] = test system: mouse E18 hippocampal neurons; test: Immunocytochemistry of neuronal markers; format: cell-based; settings: 1 μM, 5 days, vs vehicle
Procedure: For recovering proteins, cells were seeded in 6-well dishes coated with poly-D-lysine (SigmaAldrich, St. Louis, Mo., USA), 50 μg/ml for an overnight, at a density of 1×10^6 cells/well. For immunocytochemistry, cells were seeded onto 5 mm cover slips coated with poly-D-lysine at a density of 7×10^4 cells/well in 100 μl Defined Medium in 96 well plates. The cells were cultured for four days in vitro prior to the beginning of the treatment with the peptides. The treatment with the peptides was done for five days (starting at DIV 4 and finishing at DIV 9). The culture medium was exchanged completely at the beginning of the treatment with a test peptide (at DIV4), and every 72 h until DIV 9.
After 5 days of treatment, cells seeded on cover slips were fixed in 4% paraformaldehyde (Electron Microscopy Sciences, PA, USA) for 30 min at room temperature, and then washed 2× in PBS for storage at 4° C. prior to staining. Cells were permeabilized in 0.2% Triton-X-100 in PBS for 30 min at 25° C. and incubated in blocking buffer (1% BSA w/v, 0.2% Triton-X-100 v/v in PBS) for 60 min at 25° C. The cells were then incubated with primary antibodies at the appropriate dilutions in blocking buffer at 4° C. for 16 h, washed 3×10 min with 0.2% Triton X100 in PBS, and incubated with fluorescently-labeled secondary antibodies diluted in blocking buffer for 1 h at 25° C. in the dark. Cover slips were washed 3×10 min in 0.2% Triton X-100 in PBS and mounted on glass slides with GelMount (Biomeda, Foster City, Calif., USA). The following primary antibodies were used: rabbit polyclonal anti-GFAP (1:500; Sigma-Aldrich, St. Louis, Mo., USA); rabbit polyclonal anti-NFM (1:200; Chemicon/Millipore, Billerica, Mass., USA); mouse monoclonal anti-NeuN (1:300; Millipore, Billerica, Mass., USA); rabbit polyclonal anti-Tuj-1, 0—III-tubulin (1:800; Covance, Emeryville, Calif., USA); mouse monoclonal SMI 52 to the adult isoforms of MAP-2, MAP2a,b (1:1000; Covance, Emeryville, Calif., USA); rabbit polyclonal anti-synapsin I (1:2000; Stressgen, Farmingdale, N.Y., USA); and rabbit monoclonal anti-PSD95 (1:100; Cell Signaling, Danvers, Mass., USA). Secondary goat anti-mouse and anti-rabbit IgGs conjugated with AlexaFluor 594 were used at 1:1000 (Molecular Probes, Carlsbad, Calif., USA). The nuclei were stained with 1 μM TOPRO in PBS (Invitrogen, Grand Island, N.Y., USA). Mounted cover slips were examined using 40× oil immersion objective of a Nikon 90i fluorescent microscope equipped with Nikon C1 three-laser confocal system and a Nikon DS U1 digital camera, and analyzed with EZ-C1 Viewer Image software, Version 6.0. […]

BDNF and TrkB = test: Induction of BDNF and TrkB expression after pre-treatment with CHX or K252a; format: cell-based, mouse; settings: 0.1 μM, two days
Procedure: Peptides were dissolved in water in serial dilutions of 10 mM, 1 mM, 100 μM and 10 μM from which the necessary amount was added directly to the culture medium to a final concentration of 0.05 μM, 1 μM, or 10 μM. The BDNF (Peprotech, NJ, USA) was used as a reference in concentrations of 20 ng/ml (0.79 nM) and 100 ng/ml (3.95 nM). Cycloheximide (CHX) (Sigma-Aldrich, St Louis, Mo., USA) was used for blocking protein synthesis. CHX original stock was 100 mg/ml (355.4 mM) in DMSO; from a second stock of 35.54 mM in DMSO, the dilutions were made to the final concentrations of 100 μM. The K252a (CALBIOCHEM/EMD) was used to inhibit the TrkB Receptor. From a stock of 100 μM in DMSO, K252a was diluted to a final working concentration of 200 nM. The E18 primary hippocampal cells were pre-treated with CHX or K252a 1 h prior to the addition of the peptides or BDNF and a time course of these treatments for 15 min, 60 min and 2 days was studied.
To evaluate whether the effect of B-5 and B-3 in induction of the expression of BDNF and TrkB was via the activation of the TrkB receptor and required signal transduction via TrkB and new protein synthesis, mouse embryonic E18 cultured hippocampal cells were pre-treated with the protein synthesis inhibitor, cycloheximide (CHX) or the Trk inhibitor K252a for 1 h, and then added Peptide B-5 at a concentration of 0.1 μM (the dose that gave the maximum induction of BDNF expression, FIGS. 5A and B) or BDNF 20 ng/ml as a positive control (FIG. 7C,D). A time course of these treatments was studied with Peptide B-5 or BDNF for 15 min, 60 min and two days.

## Ac-I-K-R-G-CONH2 [Peptide B-5]
[1]
  expression of 0-III-tubulin (immunocytochemistry): induced an increase
  expression of MAP2 (immunocytochemistry): induced an increase
  expression of NFM (immunocytochemistry): induced an increase
  expression of NeuN (immunocytochemistry): induced an increase
BDNF and TrkB; CHX pre-treatment 1 h
  increase in the expression of BDNF in the presence of CHX: inhibition of the increase
  increase in the expression of TrkB in the presence of CHX: inhibition of the increase
BDNF and TrkB; K252a pre-treatment 1 h
  induction of the expression of BDNF in cells treated with K252a: no more significant induction
  induction of the expression of TrkB in cells treated with K252a: no more significant induction
